Laboratory results as given in article PMC9975698, “Hyperoside alleviates toxicity of β-amyloid via endoplasmic reticulum-mitochondrial calcium signal transduction cascade in APP/PS1 double transgenic Alzheimer's disease mice” (Redox Biology, 2023).

How the values were obtained:
HT22 cells = assay: Mitochondrial membrane potential by JC-1; type: cell-based
Description: The mitochondrial membrane potential of HT22 stained with 5,5′,6,6′-tetrachloro-1,1′,3,3′-tetraethylbenzimidazolyl cobalt iodide (JC-1) was observed by laser scanning confocal microscopy.

APP/PS1 mice [1] = assay: Y-maze test; type: in vivo; conditions: HYP 20/40/80 mg/kg nasal, every 3 days, after 7 weeks
Description: All animal care and experimental procedures were performed in accordance with the “Institutional Animal Care and User Committee Guidelines” of the Macau University of Science and Technology. APP/PSEN1 (APP/PS1) mice (N000175) were purchased from the Nanjing Institute of Biomedical Sciences, Nanjing University, China, weighing 25 ± 5 g. The animals were housed in a temperature-controlled room with a 12 h light/dark cycle and given ad libitum food and water. Male mice were randomly divided into the following 6 experimental groups. (a) wild-type group (n = 6), (b) APP/PS1 group (n = 6), (c) HYP (20 mg/kg group) (n = 7), (d) HYP (40 mg/kg) group (n = 8), (e) HYP (80 mg/kg) group (n = 8) and (f) memantine (MEM) (10 mg/kg) positive control group (n = 8). HYP was dissolved in the solvent containing 10% DMSO, 40% PEG300 and 5% Tween-80 in PBS, and administrated via nasal injection for every 3 days with a volume of 0.5 μL/g of body weight for 8 consecutive weeks. Y-maze tests assess cognitive changes, short-term spatial working memory (by spontaneous alternation), and exploratory activity (by total number of arm choices) of mice. […] The number of total arm choices and sequence of arm choices were recorded. The percentage of alternation can be calculated as the ratio of total number of alternations / the number of arms entered x 100%. […]

Aβ aggregate = biological target: T1, Aβ aggregate (Homo sapiens, UniProt P05067); assay: LC/MS/MS Aβ binding propensity (reduction of HYP peak area in MRM); conditions: HYP 20–80 μM with 30 μM Aβ aggregate vs HYP alone
T1 construct: purchased DGpeptites, Hangzhou, CHINA
Description: Quercetin-3-O-β-D-galactopyranoside (Hyperoside, HYP), belongs to the class of flavonol glycosides and is derived from Crataegus pinnatifida Bunge Aβ is a well-known biomarker correlated to AD, therefore, the effect of HYP in targeting Aβ was investigated by molecular docking. […] HYP with Aβ molecular surface interaction and hydrogen bonding information were shown in supplementary 1A and 1B. […] The formation of Aβ aggregate and its particle size was verified by DLS (Fig. 1C). While the average particle size of the Aβ monomer is 365.62 nm, the particle size of Aβ aggregate is 1877 nm (Fig. 1D). The detection on the formation of Aβ aggregate was then performed by using the ThT fluorescence assay. ThT is a benzothiazole-like small molecule that specifically binds to amyloid fibrils. […] The direct binding affinity of HYP to Aβ aggregate was confirmed by the BLI assay. […] By using HYP alone (without Aβ aggregate incubation) as the control, all incubation mixtures were analyzed by using LC/MS/MS under the same chromatographic conditions according to our previous reported detection method. The quantitative reduction (%) in the peak area, representing the Aβ binding propensity of the tested compound [39] is used for statistical analysis.

APP/PS1 mice [2] = assay: Rotarod test; type: in vivo; conditions: HYP nasal, every 3 days, 8 weeks
Description: All animal care and experimental procedures were performed in accordance with the “Institutional Animal Care and User Committee Guidelines” of the Macau University of Science and Technology. APP/PSEN1 (APP/PS1) mice (N000175) were purchased from the Nanjing Institute of Biomedical Sciences, Nanjing University, China, weighing 25 ± 5 g. The animals were housed in a temperature-controlled room with a 12 h light/dark cycle and given ad libitum food and water. Male mice were randomly divided into the following 6 experimental groups. (a) wild-type group (n = 6), (b) APP/PS1 group (n = 6), (c) HYP (20 mg/kg group) (n = 7), (d) HYP (40 mg/kg) group (n = 8), (e) HYP (80 mg/kg) group (n = 8) and (f) memantine (MEM) (10 mg/kg) positive control group (n = 8). HYP was dissolved in the solvent containing 10% DMSO, 40% PEG300 and 5% Tween-80 in PBS, and administrated via nasal injection for every 3 days with a volume of 0.5 μL/g of body weight for 8 consecutive weeks. The rotarod test was used to monitor motor coordination. The test consisted of placing the animal on a rotating rod with a rotational speed of 25 rpm (Yuyan, Shanghai, China) until the animal fell to the ground and the movement time was recorded. The test was performed three times with an interval of 300 s, and the mean of the test results were calculated.

Aβ (1–42) = biological target: T2, Aβ (1–42) (Homo sapiens, UniProt P05067); assay: Thioflavin T (ThT) fluorescence assay of Aβ fibrillation; type: biochemical; conditions: Aβ 30 μM, 37 °C, day 1–7
T2 construct: purchased DGpeptites, Hangzhou, CHINA
Description: HYP was incubated with Aβ (30 μM) for 7 days at 37 °C at a final volume of 100 μL. ThT fluorescence measurement was measured for every 24 h. ThT (20 μM) dissolved in PBS (pH = 7.4) was added in a black 96-well plate with 10 μL of aggregated Aβ (with or without HYP) and incubated for 1 h. Fluorescence measurement was then performed using a microplate reader (SpectraMax Paradigm, Molecular Devices, CA, USA) with an excitation wavelength of 450 nm and an emission wavelength of 490 nm. Background fluorescence was measured in control samples containing PBS and 0.02 % DMSO.

APP and APP-β = assay: Western blot of APP and APP-β in HT22 cells; type: cell-based
Description: After HYP treatment, the cells were lysed with RIPA. Protein concentrations were determined by Bio-Rad protein assay (Bio-Rad Laboratories, CA, USA). After electrophoretic separation, the gels were blotted and stained with primary antibodies. Binding of antibodies was visualized with peroxidase-coupled secondary antibodies using ECL Western Blotting detection reagents (Invitrogen, Scotland, UK). Band intensities were quantified using ImageJ software. Data were obtained from three independent experiments.

T1 sequence (P05067 672-713 limits assumed): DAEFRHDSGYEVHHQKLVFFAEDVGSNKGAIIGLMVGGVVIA
T2 sequence (P05067 672-713 limits assumed): as above

**Q.** With O=c1c(O[C@@H]2O[C@H](CO)[C@H](O)[C@H](O)[C@H]2O)c(-c2ccc(O)c(O)c2)oc2cc(O)cc(O)c12 [HYP, Quercetin-3-O-β-D-galactopyranoside] as the compound, how does the “mitochondrial membrane potential (ratio of aggregated and monomeric JC-1)” value (HT22 cells; Aβ aggregates + HYP 20–80 μM, 24 h) read?
**A.** rescue the loss of mitochondrial membrane potential induced by Aβ aggregates in a dose-dependent manner

**Q.** And the “mitochondrial membrane potential (JC-1)” value (HT22 cells; HYP alone)?
**A.** no effect

**Q.** What about the “spatial working memory (Y-maze alternation)” value (APP/PS1 mice [1]) of the same compound?
**A.** resumed to a level comparable to WT mice group

**Q.** What about the “decrease in the peak area of HYP in MRM (Aβ binding propensity)” value (Aβ aggregate) of the same compound?
**A.** dose-dependent binding affinity

**Q.** What about the “motor ability (time retained on the rotating rod)” value (APP/PS1 mice [2]) of the same compound?
**A.** improved after HYP treatment

**Q.** What about the “Aβ fibrillation and aggregation (ThT fluorescence)” value (Aβ (1–42)) of the same compound?
**A.** reduced Aβ fibrillation and aggregation

**Q.** And the “protein level of APP and APP-β” value (APP and APP-β)?
**A.** reduced the protein level of both APP and APP-β
